Assay results: patent US5354862A, “Preparation and the use of halopropargylated cyclic quaternary ammonium compounds as antimicrobial agents” (Rohm and Haas Company, priority 1993, dated 1994)
Read-outs that look alike come from different tables or passages of the source.

Key:
Test in all cases: Broth two-fold serial dilution MIC test
[1] = tested on: Aspergillus niger; format: cell-based, Aspergillus niger (ATCC 6275); settings: Table 2, Anig, TSB media
In short: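 Two-fold broth serial dilution from 500 ppm down to 0.25 ppm, compound stock in acetone/methanol/water 5:3:2. Vessels inoculated with standardized spore suspension harvested from agar slants, incubated at a species-appropriate temperature, then scored for growth/no growth. MIC is the lowest concentration giving complete growth inhibition.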

[2] = tested on: Escherichia coli; format: cell-based, Escherichia coli (ATCC 11229); settings: Table 2, Ecol
In short: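 Broth two-fold serial dilutions ran from 500 down to 0.25 ppm, prepared from a stock in acetone/methanol/water (5:3:2). Each tube received a standardized bacterial suspension and was incubated at a temperature suited to the species. MIC is the lowest concentration giving complete growth inhibition.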

[3] = tested on: Pseudomonas aeruginosa; format: cell-based, Pseudomonas aeruginosa (ATCC 15442); settings: Table 2, Psae
In short: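 Broth two-fold serial dilution MIC (500 to 0.25 ppm) was run against Pseudomonas aeruginosa, with compound from 1% stock in acetone/methanol/water 5:3:2. Vessels inoculated with standardized broth-grown cells were incubated, then scored for growth. MIC is the lowest concentration giving complete growth inhibition.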

[4] = tested on: Staphylococcus aureus; format: cell-based, Staphylococcus aureus (ATCC 6538); settings: Table 2, Saur
In short: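 Broth two-fold serial dilution from 500 ppm down to 0.25 ppm, compound delivered from acetone/methanol/water stock, inoculated with standardized cell suspension and incubated at an organism-appropriate temperature. MIC is the lowest concentration giving complete growth inhibition.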

[5] = Aspergillus niger, read-out: MIC
[6] = Escherichia coli, M9G media, read-out: MIC
[7] = Escherichia coli, TSB media, read-out: MIC
[8] = Pseudomonas aeruginosa, M9G media, read-out: MIC
[9] = Pseudomonas aeruginosa, TSB media, read-out: MIC
[10] = Staphylococcus aureus, M9G media, read-out: MIC
[11] = Staphylococcus aureus, TSB media, read-out: MIC

Compound	MIC [1, 5]	MIC [2, 6]	MIC [2, 7]	MIC [3, 8]	MIC [3, 9]	MIC [4, 10]	MIC [4, 11]	MIC [1]	MIC ([2]; M9G media)	MIC ([2]; TSB media)	MIC ([3]; M9G media)	MIC ([3]; TSB media)	MIC ([4]; M9G media)	MIC ([4]; TSB media)
CCCCCCCCCCCCCC[N+]1(CC#CI)CCSCC1 [Compound 57, 4-(tetradecyl)-4-(3-iodopropargyl)-thiomorpholinium benzenesulfonate]	0.5 µg/mL	< 0.25 µg/mL	0.5 µg/mL	0.5 µg/mL	4 µg/mL	< 0.25 µg/mL	< 0.25 µg/mL							
CCCCCCCCCCCCCC[N+]1(CC#CI)CCNC1.O=S(=O)([O-])c1ccccc1 (stereo not shown) [Compound 58, 3-(tetradecyt)-3-(3-iodopropargyl)-imidazolidinium benzenesulfonate]								8 ppm	4 ppm	8 ppm	125 ppm	> 500 ppm	0.5 ppm	4 ppm
CCCCCCCCCCCCCC[N+]1(CC#CI)CCCCC1 [Compound 59, 1-tetradecyl-1-(3-iodopropargyl)-piperidinium benzenesulfonate]								8 ppm	8 ppm	16 ppm	32 ppm	125 ppm	4 ppm	4 ppm
CCCCCCCCCCCCCCCC[N+]1(CC#CI)CCCCC1 [Compound 60, 1-hexadecyl-1-(3-iodopropargyl)-piperidinium benzenesulfonate]								16 ppm	2 ppm	16 ppm	63 ppm	250 ppm	1 ppm	2 ppm
CCCCCCCCCCCCCCCC[N+]1(CC#CI)CCCCC1 [Compound 61, 1-hexadecyl-1-(3-iodopropargyl)-piperidinium methanesulfonate]								8 ppm	8 ppm	8 ppm	16 ppm	125 ppm	2 ppm	2 ppm
CCCCCCCCCCCCCC[N+]1(CC#CI)CCCCC1 [Compound 62, 1-tetradecyl-1-(3-iodopropargyl)-piperidinium methanesulfonate]								0.25 ppm	2 ppm	4 ppm	16 ppm	63 ppm	0.25 ppm	0.25 ppm
CCCCCCCCCCCCOC(=O)C[N+]1(CC#CI)CCCC1 [Compound 63, 1-(dodecyloxycarbonyl)methyl-1-(3-iodopropargyl)-pyrrolidinium 4-methylbenzenesulfonate]		2 µg/mL	4 µg/mL	64 µg/mL				2 ppm				125 ppm	2 ppm	4 ppm
CCCCCCCCCCCCOC(=O)C[N+]1(CC#CI)CCCC1 [Compound 64, 1-(dodecyloxycarbonyl)methyl-1-(3-iodopropargyl)-pyrrolidinium benzenesulfonate]								8 ppm	1 ppm	4 ppm	32 ppm	32 ppm	0.25 ppm	0.25 ppm
CCCCCCCCCCOC(=O)C[N+]1(CC#CI)CCCC1 [Compound 65, 1-(decyioxycarbonyl)methyl-1-(3-iodopropargyl)-pyrrolidinium 4methylbenzenesulfonate]	16 µg/mL	2 µg/mL	4 µg/mL	64 µg/mL	125 µg/mL	2 µg/mL	1 µg/mL							
CCCCCCCCCCOC(=O)C[N+]1(CC#CI)CCOCC1 [Compound 66, 4-(decyioxycarbonyl)methyl-4-(3-iodopropargyl)-morpholiniurn 4methylbenzenesulfonate]	125 µg/mL	2 µg/mL	8 µg/mL	64 µg/mL	250 µg/mL	0.5 µg/mL	8 µg/mL							
